Laboratory results reported in patent US20260284051A1, “METHIONINE ADENOSYLTRANSFERASE 2A (MAT2A) INHIBITOR COMBINATIONS AND USES THEREOF” (INSILICO MEDICINE IP LIMITED, priority 2023, published 2026).

Legend:
Format in all cases: in vivo
Settings in all cases: for Tumor volume (mm^3) Final (mean): Mean ± SD
KP4 MTAP null xenografts = assay: Efficacy study of KP-4 human pancreatic cancer xenograft model in NOD SCID mice
Description: Efficacy Study of KP-4 Human Pancreatic Cancer Xenograft Model in NOD SCID Mice
The KP-4 tumor cell line was maintained in vitro as monolayer culture in RPMI 1640 medium supplemented with 10% fetal bovine serum at 37° C. in an atmosphere of […] in air. The tumor cells were routinely subculture weekly by trypsin-EDTA treatment, not to exceed 4-5 passages. The cells growing in an exponential growth phase was harvested and counted for tumor inoculation.
Each mouse was inoculated subcutaneously on the central right flank with KP-4 tumor cells (1×10^7) in 0.1 mL of RPMI-1640 without serum for the tumor development. The treatment started when the mean tumor size reached approximately 100 mm^3. Mice were assigned to groups such that the mean tumor volume is the same for each treatment group and time point.
For routine monitoring, all study animals were monitored for not only tumor growth but also behavior such as mobility, food, and water consumption (by cage side checking only), body weight (BW), eye/hair matting and any other abnormal effect. Any mortality and/or abnormal clinical signs were recorded.
Body weights of all animals were measured twice a week throughout the study. Body weight change, expressed in %, will be calculated using the following formula: BW change (%)=(BWDay x/BWDay 0)×100, where BWDay x is BW on a given day, and BWDay 0 is BW on Day 0 (initiation of treatment).
The measurement of tumor size were conducted twice a week with a caliper and the tumor volume (mm^3) was estimated using the formula: TV=a×b^2/2, where a and b are long and short diameters of a tumor, respectively. The TVs were used for calculation of the tumor growth inhibition (TGI, an indicator of antitumor effectiveness) value using the formula: TGI (%)=[1−(Tn−T0)/(Cn−C0)]×100%, only over the dosing period (dosing days 0 to days n). Where: Tn—is the avg tumor volume at the respective day “n” after dosing throughout treatment period; T0—is the avg tumor volume in the treatment group at day 0 before treatment (immediately before); Cn—avg tumor volume in the control group at the respective day “n” after dosing throughout treatment period; and C0—average tumor volume in the control group at day 0 before treatment (immediately before). The experiment was terminated when the mean tumor volume exceeded 2000 mm^3 or severe body weight loss.
The statistical software GraphPad Prism (version number: 8) was used to analyze the difference in tumor volume between the treatment group and the solvent control group. Two-way ANOVA and Bonferroni multiple tests were used to compare whether there was a significant difference in tumor volume between the vehicle control group and each treatment group during the administration period.
Mean tumor volume at dosing start was approximately 102 mm^3, with ten mice randomized to each treatment group. In the KP4 MTAP null tumor model, mice were dosed orally, once per day (QD) with Vehicle, once per day (QD) with Compound 1 at 1, 3 mg/kg, once per day (QD) with AG270 at 100 mg/kg, mice were intravenous, per week with Docetaxel at 2.5 mg/kg, or Compound 1 combined with Docetaxel at each dose level.

[1] = system: HCC15 MTAP null xenografts; assay: Efficacy study of HCC15 human lung cancer xenograft model in NOD SCID mice
Description: Efficacy Study of HCC15 Human Lung Cancer Xenograft Model in NOD SCID Mice Methods:
The HCC15 cells were maintained in vitro as a monolayer culture in 90% 1640+10% FBS, 100U/ml penicillin and 100 μg/ml streptomycin at 37° C. in an atmosphere of 5% CO2 in air. The tumor cells were routinely subcultured at a ratio of 1:2 to 1:3 every 3-4 days. Alternatively, Cultures were maintained by addition or replacement of fresh medium. Started cultures at 5×10^5 cells/mL and maintained between 0.5×10^5 and 2×10^6 cells/ml.
NOD SCID mice, female, 6-8 weeks, weighing approximately 20-22 g.
Each mouse were inoculated subcutaneously at the right flank with HCC15 cells in a 0.2 mL mixture of 1640 for tumor development (5×10^6 cells/mouse). Dosing was started when the average tumor size reaches approximately 100-200 mm^3 for the tumor efficacy study with tool and med chem molecules to look for efficacy vs vehicle tumor growth.
Mean tumor volume at dosing start was approximately 133.09 mm^3, with ten mice randomized to each treatment group. In the HCC15 MTAP null tumor model, mice were dosed orally, once per day (QD) with Vehicle, once per day (QD) with Compound 1 at 3 mg/kg, once per day (QD) with AG270 at 100 mg/kg, mice were intravenous, per week with Docetaxel at 2.5 mg/kg, or Compound 1 combined with Docetaxel at each dose level.

[2] = system: NCI-H838 MTAP null xenografts; assay: Efficacy study of NCI-H838 human lung cancer xenograft model in NOD SCID mice
Source text: Efficacy Study of NCI-H838 Human Lung Cancer Xenograft Model in NOD SCID Mice Methods:
The NCI-H838 cancer cells were maintained in vitro with RPMI-1640 medium supplemented with 10% fetal bovine serum at 37TC in an atmosphere of 5% CO2 in the air. The cells in exponential growth phase were harvested and quantitated by cell counter before tumor inoculation.
NOD SCID mice, female, 6-8 weeks, weighing approximately 20-22 g, All the mice were purchased from Shanghai Lingchang Bio-Tech Co., Ltd.
Each mouse was inoculated subcutaneously at the right flank with NCI-H838 cells in a 0.1 mL of PBS mixed with Matrigel (1:1) for tumor development (5×10^6 cells/mouse). Dosing was started when the average tumor size reached approximately ~150 mm^3 for the tumor efficacy study with tool and med chem molecules to look for efficacy vs vehicle tumor growth.
Mean tumor volume at dosing start was approximately 146.51 mm^3, with six mice randomized to each treatment group. In the NCI-H838 MTAP null tumor model, mice were dosed orally, once per day (QD) with vehicle, once per day (QD) with Compound 1 at 3, 10 mg/kg, mice were intravenous, once per day (QD) with PRMT5 inhibitor MRTX1719 at 50 mg/kg, or Compound 1 combined with MRTX1719 at each dose level.

[3] = combination: Compound 1 3 mg/kg QD + Docetaxel 2.5 mg/kg per week
[4] = combination: Compound 1 3 mg/kg QD + Docetaxel 2.5 mg/kg per week, listed as Compound 1
[5] = combination: Compound 1 3 mg/kg QD + MRTX1719 50 mg/kg QD
[6] = combination: Compound 1 10 mg/kg QD + MRTX1719 50 mg/kg QD

C#CCNc1nc(=O)n(-c2cccnc2C)c2cc(C(F)(F)F)cc(OC)c12 [Example 36, 5-methoxy-1-(2-methylpyridin-3-yl)-4-(prop-2-yn-1-ylamino)-7-(trifluoromethyl)quinazolin-2(1H)-one]
TGI (%) (KP4 MTAP null xenografts; Compound 1 1 mg/kg orally QD): 36.8%
Tumor volume (mm^3) Final (mean) (KP4 MTAP null xenografts; Compound 1 1 mg/kg orally QD): 1,484 ± 263 mm^3
TGI (%) (KP4 MTAP null xenografts; Compound 1 3 mg/kg orally QD): 53.4%
Tumor volume (mm^3) Final (mean) (KP4 MTAP null xenografts; Compound 1 3 mg/kg orally QD): 1,121 ± 181 mm^3
effect on tumor growth (in words) (KP4 MTAP null xenografts; combination of Compound 1 (1, 3 mg/kg) and Docetaxel 2.5 mg/kg): significantly inhibited tumor growth in a dose dependent manner
Tumor volume (mm^3) Final (mean) (KP4 MTAP null xenografts; combination: Compound 1 1 mg/kg QD + Docetaxel 2.5 mg/kg per week): 767 ± 101 mm^3
TGI (%) (KP4 MTAP null xenografts; combination: Compound 1 1 mg/kg QD + Docetaxel 2.5 mg/kg per week, listed as Compound 1): 69.6%
Tumor volume (mm^3) Final (mean) (KP4 MTAP null xenografts; [3]): 686 ± 80 mm^3
TGI (%) (KP4 MTAP null xenografts; [4]): 73.2%
Tumor volume (mm^3) Final (mean) ([1]; Compound 1 3 mg/kg orally QD): 596 ± 63 mm^3
TGI (%) ([1]; Compound 1 3 mg/kg orally QD, listed as Compound 1, 3 mg/kg): 49.6%
effect on tumor growth (in words) ([1]; combination of Compound 1 3 mg/kg and Docetaxel 2.5 mg/kg): significantly inhibited tumor growth
Tumor volume (mm^3) Final (mean) [1, 3]: 399 ± 42 mm^3
TGI (%) [1, 4]: 71.2%
TGI (%) ([2]; Compound 1 3 mg/kg orally QD): 1.6%
Tumor volume (mm^3) Final (mean) ([2]; Compound 1 3 mg/kg orally QD): 2029 ± 239 mm^3
TGI (%) ([2]; Compound 1 10 mg/kg orally QD): 19.9%
Tumor volume (mm^3) Final (mean) ([2]; Compound 1 10 mg/kg orally QD): 1678 ± 113 mm^3
effect on tumor growth (in words) ([2]; combination of Compound 1 (3, 10 mg/kg) and MRTX1719 50 mg/kg): significantly inhibited tumor growth
synergy effect ([2]; combination: Compound 1 3 mg/kg + MRTX1719 50 mg/kg): 1.02
TGI (%) [2, 5]: 83.2%
Tumor volume (mm^3) Final (mean) [2, 5]: 468 ± 115 mm^3
synergy effect ([2]; combination: Compound 1 10 mg/kg + MRTX1719 50 mg/kg): 1.21
TGI (%) [2, 6]: 103.1%
Tumor volume (mm^3) Final (mean) [2, 6]: 88 ± 7 mm^3
